The text below walks through data of PubChem BioAssay (NCI).

Some test systems named below: A498 renal; A549 NSCLC; DU-145 prostate; HCC-2998 colon; HCT-15 colon; KM12 colon; M14 melanoma; SK-MEL-2 melanoma; SNB-75 CNS; U251 CNS.
What all share (assay): NCI anticancer screen, dose series, 48 h

Structures are written as SMILES.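 Protocol summary: plate cells (96-well), add compound at 5 concentrations, incubate 48 h, interpolate endpoints linearly. GI50: concentration for 50% inhibition of growth. TGI marks complete inhibition of growth.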

For the compound `C/C(=N/N=C(N)N)c1ccc(NC(=O)Nc2ccc(/C(C)=N/N=C(N)N)cc2)cc1`, the GI50 in the assay on A498 renal was 23.5 µM; in the assay with A549 NSCLC it was 19.4 µM; with DU-145 prostate it was 11.2 µM; in the assay on HCC-2998 colon, 23.4 µM; in the assay on HCT-15 colon, 25.5 µM; in the assay on KM12 colon, 9.78 µM. The GI50 in the assay with M14 melanoma was 35.7 µM; in the assay on SK-MEL-2 melanoma it was 18.4 µM; with SNB-75 CNS, 17.6 µM; in the assay on U251 CNS it was 7.94 µM. The TGI in the assay with A498 renal was 69.9 µM; with A549 NSCLC it was 54.8 µM; in the assay with DU-145 prostate, 40.1 µM; in the assay on HCC-2998 colon, 81.5 µM; with HCT-15 colon, more than 77.6 µM; in the assay on KM12 colon, more than 77.7 µM. For the same compound, the TGI is more than 75.1 µM with M14 melanoma, 60.6 µM in the assay on SK-MEL-2 melanoma, 38.1 µM in the assay on SNB-75 CNS and 24.3 µM with U251 CNS.
For the compound `O=C(O)Cc1cccc2c(=O)c3cccc([N+](=O)[O-])c3oc12`, the TGI in the assay with A498 renal, in the assay on A549 NSCLC, in the assay on DU-145 prostate, in the assay on HCC-2998 colon, in the assay with HCT-15 colon and with KM12 colon was more than 100 µM throughout. The TGI in the assay with M14 melanoma, in the assay on SK-MEL-2 melanoma, in the assay with SNB-75 CNS and with U251 CNS was more than 100 µM each time.
For `CCN(Cc1ccc(F)cc1)c1ccc(CO)c(OC)c1`, the GI50 with A498 renal was 0.331 µM; in the assay on A549 NSCLC it was 40.1 µM; in the assay on DU-145 prostate it was 27.6 µM; in the assay with HCC-2998 colon, 21.9 µM; in the assay on HCT-15 colon, 14.6 µM; in the assay on KM12 colon, 36.5 µM. Also, the GI50 with M14 melanoma is 31.1 µM; with SK-MEL-2 melanoma it was 11.9 µM; in the assay with SNB-75 CNS it was 11.6 µM; with U251 CNS, 22.1 µM. The TGI in the assay with A498 renal is 1.37 µM; with A549 NSCLC it was more than 100 µM; in the assay on DU-145 prostate, more than 95.2 µM; with HCC-2998 colon, more than 60.5 µM; in the assay with HCT-15 colon, 41 µM; in the assay on KM12 colon, more than 100 µM. Also, the TGI is more than 100 µM in the assay with M14 melanoma, 27.7 µM in the assay with SK-MEL-2 melanoma, more than 100 µM in the assay with SNB-75 CNS and 99.3 µM in the assay on U251 CNS.
Turning to `N#CC1C(=O)NC(c2ccccc2[N+](=O)[O-])c2sc3c(F)cccc3c21` (stereo not given), the GI50 is 0.561 µM in the assay on A498 renal; 1.72 µM in the assay on A549 NSCLC; 8.16 µM in the assay on DU-145 prostate; 10.1 µM in the assay on HCC-2998 colon; 10.4 µM with HCT-15 colon; 20 µM in the assay on KM12 colon. The GI50 was 16.3 µM in the assay on M14 melanoma, 9.03 µM with SK-MEL-2 melanoma, 1.62 µM with SNB-75 CNS and 1.16 µM in the assay on U251 CNS. The TGI in the assay with A498 renal is 2.06 µM; in the assay with A549 NSCLC, 36.1 µM; in the assay with DU-145 prostate, 46.1 µM; in the assay with HCC-2998 colon, 32.7 µM; in the assay on HCT-15 colon, 61.2 µM; in the assay on KM12 colon, 51.4 µM. The TGI in the assay on M14 melanoma worked out at 47.5 µM; in the assay with SK-MEL-2 melanoma, 49.8 µM; in the assay with SNB-75 CNS it was 94.9 µM; in the assay with U251 CNS, 62.6 µM.
Take `C[CH2][Sn]([CH2]C)([O]C(=O)c1ccc(OC)c(OC)c1OC)[O]C(=O)c1ccc(OC)c(OC)c1OC`: the GI50 is 16.3 µM with A498 renal; more than 100 µM in the assay on A549 NSCLC; more than 100 µM with DU-145 prostate; more than 100 µM with HCC-2998 colon; 61.2 µM in the assay with HCT-15 colon; more than 100 µM in the assay with KM12 colon. In addition, the GI50 was 61.9 µM in the assay on M14 melanoma, 28.7 µM with SK-MEL-2 melanoma, 19.1 µM in the assay on SNB-75 CNS and more than 75.8 µM in the assay with U251 CNS. For the same compound, the TGI was 44 µM with A498 renal; more than 100 µM in the assay on A549 NSCLC; more than 100 µM in the assay with DU-145 prostate; more than 100 µM with HCC-2998 colon; more than 100 µM in the assay with HCT-15 colon; more than 100 µM in the assay on KM12 colon. The TGI was more than 100 µM in the assay with M14 melanoma, 81.7 µM in the assay on SK-MEL-2 melanoma, 62.8 µM in the assay with SNB-75 CNS and more than 100 µM with U251 CNS.
Take `COC1=CC(=O)c2nc(Cl)ccc2C1=O`: the GI50 with A498 renal is 12 µM; in the assay with A549 NSCLC it was 12.8 µM; with DU-145 prostate it was 1.65 µM; in the assay on HCC-2998 colon it was 11.4 µM; in the assay on HCT-15 colon, 2.03 µM; with KM12 colon, 2.11 µM. The GI50 in the assay with M14 melanoma is 1.92 µM; with SK-MEL-2 melanoma, 2.07 µM; with SNB-75 CNS, 1.35 µM; in the assay with U251 CNS, 1.66 µM. For the same compound, the TGI stood at 24.3 µM in the assay with A498 renal; 26.1 µM in the assay with A549 NSCLC; 3.01 µM in the assay on DU-145 prostate; 23.6 µM in the assay on HCC-2998 colon; 4.55 µM in the assay on HCT-15 colon; 4.82 µM in the assay with KM12 colon. Also, the TGI with M14 melanoma came out at 3.52 µM; in the assay on SK-MEL-2 melanoma, 3.98 µM; in the assay with SNB-75 CNS, 2.73 µM; in the assay on U251 CNS, 3.03 µM.
On to `CCCCCC[C@H](C)NC(=O)c1ccc(Nc2nc3ccccc3c3occc23)cc1`, for which the GI50 in the assay with A498 renal is 2.74 µM; with A549 NSCLC, 4.35 µM; with DU-145 prostate it was 3.07 µM; in the assay on HCC-2998 colon, 1.26 µM; with HCT-15 colon, 8.42 µM; in the assay on KM12 colon, 4.27 µM. The GI50 in the assay on M14 melanoma was 2.25 µM; with SK-MEL-2 melanoma, 2.64 µM; with SNB-75 CNS it was 3.99 µM; in the assay with U251 CNS, 19 µM. Also, the TGI in the assay on A498 renal was 7.54 µM; in the assay with A549 NSCLC, more than 100 µM; in the assay on DU-145 prostate, 8.87 µM; in the assay on HCC-2998 colon, 4.16 µM; with HCT-15 colon, 33 µM; in the assay with KM12 colon, 20.5 µM. Moreover, the TGI in the assay on M14 melanoma was 5.37 µM; in the assay on SK-MEL-2 melanoma it was 6.83 µM; in the assay with SNB-75 CNS it was 7.69 µM; in the assay with U251 CNS, more than 100 µM.
